Data published in the supplement of paper PMC10307832.

How the values were obtained:
Experiment in all cases: relative viability (nuclei count vs DMSO), 5 days (fraction); higher = more cells survive
201T = test system: 201T
In short: (§1)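 Relative viability divides the nuclei count in treated wells by that in vehicle wells. Lung cancer cell lines were seeded in 1536-well plates, dosed by pin tool the next day, and fixed and stained after 5 days in one step with final 0.05% Triton X-100, 1% formaldehyde and 1 ug/ml Hoechst. Dosing was a single drug or a fixed anchor-drug dose plus five library-drug doses (not always all listed) in √10 steps, and values are medians of duplicate plates imaged at 4×.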

BEN = test system: BEN
In short: as §1

CAL-12T = test system: CAL-12T
In short: as §1

HCC-78 = test system: HCC-78
In short: as §1

HOP-62 = test system: HOP-62
In short: as §1

LCLC-97TM1 = test system: LCLC-97TM1
In short: as §1

LOU-NH91 = test system: LOU-NH91
In short: as §1

NCI-H1355 = test system: NCI-H1355
In short: as §1

NCI-H1395 = test system: NCI-H1395
In short: as §1

NCI-H1651 = test system: NCI-H1651
In short: as §1

NCI-H1793 = test system: NCI-H1793
In short: as §1

NCI-H1915 = test system: NCI-H1915
In short: as §1

NCI-H1944 = test system: NCI-H1944
In short: as §1

NCI-H2126 = test system: NCI-H2126
In short: as §1

NCI-H2347 = test system: NCI-H2347
In short: as §1

NCI-H3122 = test system: NCI-H3122
In short: as §1

NCI-H322M = test system: NCI-H322M
In short: as §1

NCI-H441 = test system: NCI-H441
In short: as §1

NCI-H650 = test system: NCI-H650
In short: as §1

NCI-H838 = test system: NCI-H838
In short: as §1

For `Cc1cn(-c2cc(NC(=O)c3ccc(C)c(Nc4nccc(-c5cccnc5)n4)c3)cc(C(F)(F)F)c2)cn1` [Nilotinib] + NC(=O)Nc1cc(-c2cccc(F)c2)sc1C(=O)N[C@H]1CCCNC1 [AZD7762] (partner 0.2 µM), the relative viability (201T; first compound 0.001 µM) was 0.568, the relative viability (201T; first compound 0.003162 µM) was 0.546 and the relative viability (201T; first compound 0.01 µM) was 0.563. The relative viability (201T; first compound 0.03162 µM) was 0.424, the relative viability (201T; first compound 0.1 µM) was 0.317 and the relative viability (BEN; first compound 0.001 µM) was 0.76. It also gave a relative viability (BEN; first compound 0.003162 µM) of 0.649, a relative viability (BEN; first compound 0.01 µM) of 0.589 and a relative viability (BEN; first compound 0.03162 µM) of 0.6. It also gave a relative viability (BEN; first compound 0.1 µM) of 0.53, a relative viability (CAL-12T; first compound 0.001 µM) of 0.607 and a relative viability (CAL-12T; first compound 0.003162 µM) of 0.423. It also gave a relative viability (CAL-12T; first compound 0.01 µM) of 0.631, a relative viability (CAL-12T; first compound 0.03162 µM) of 0.539 and a relative viability (CAL-12T; first compound 0.1 µM) of 0.605. The relative viability (HCC-78; first compound 0.001 µM) was 0.668, the relative viability (HCC-78; first compound 0.003162 µM) was 0.442 and the relative viability (HCC-78; first compound 0.01 µM) was 0.725. It also gave a relative viability (HCC-78; first compound 0.03162 µM) of 0.58, a relative viability (HCC-78; first compound 0.1 µM) of 0.628 and a relative viability (HOP-62; first compound 0.001 µM) of 0.57. The relative viability (HOP-62; first compound 0.003162 µM) was 0.549, the relative viability (HOP-62; first compound 0.01 µM) was 0.595 and the relative viability (HOP-62; first compound 0.03162 µM) was 0.271. For the same compound, the relative viability (LCLC-97TM1; first compound 0.003162 µM) was 0.366, the relative viability (LCLC-97TM1; first compound 0.1 µM) was 0.0966 and the relative viability (LOU-NH91; first compound 0.001 µM) was 0.748. It also gave a relative viability (LOU-NH91; first compound 0.003162 µM) of 0.742, a relative viability (LOU-NH91; first compound 0.01 µM) of 0.772 and a relative viability (LOU-NH91; first compound 0.03162 µM) of 0.65. For the same compound, the relative viability (LOU-NH91; first compound 0.1 µM) was 0.684, the relative viability (NCI-H1355; first compound 0.001 µM) was 0.718 and the relative viability (NCI-H1355; first compound 0.003162 µM) was 0.782. The relative viability (NCI-H1355; first compound 0.01 µM) was 0.801, the relative viability (NCI-H1355; first compound 0.03162 µM) was 0.439 and the relative viability (NCI-H1355; first compound 0.1 µM) was 0.583. The relative viability (NCI-H1395; first compound 0.001 µM) was 0.4, the relative viability (NCI-H1395; first compound 0.01 µM) was 0.37 and the relative viability (NCI-H1395; first compound 0.03162 µM) was 0.361. For the same compound, the relative viability (NCI-H1395; first compound 0.1 µM) was 0.362, the relative viability (NCI-H1651; first compound 0.001 µM) was 0.444 and the relative viability (NCI-H1651; first compound 0.003162 µM) was 0.394. It also gave a relative viability (NCI-H1651; first compound 0.01 µM) of 0.572, a relative viability (NCI-H1651; first compound 0.03162 µM) of 0.401 and a relative viability (NCI-H1651; first compound 0.1 µM) of 0.239. It also gave a relative viability (NCI-H1793; first compound 0.001 µM) of 0.388, a relative viability (NCI-H1793; first compound 0.003162 µM) of 0.318 and a relative viability (NCI-H1793; first compound 0.01 µM) of 0.303. It also gave a relative viability (NCI-H1793; first compound 0.03162 µM) of 0.243, a relative viability (NCI-H1793; first compound 0.1 µM) of 0.146 and a relative viability (NCI-H1915; first compound 0.001 µM) of 0.682. For the same compound, the relative viability (NCI-H1915; first compound 0.003162 µM) was 0.683, the relative viability (NCI-H1915; first compound 0.01 µM) was 0.718 and the relative viability (NCI-H1915; first compound 0.03162 µM) was 0.67. It also gave a relative viability (NCI-H1915; first compound 0.1 µM) of 0.619, a relative viability (NCI-H1944; first compound 0.001 µM) of 0.436 and a relative viability (NCI-H1944; first compound 0.003162 µM) of 0.75. The relative viability (NCI-H1944; first compound 0.01 µM) was 0.41, the relative viability (NCI-H1944; first compound 0.03162 µM) was 0.285 and the relative viability (NCI-H1944; first compound 0.1 µM) was 0.299. The relative viability (NCI-H2126; first compound 0.001 µM) was 0.965, the relative viability (NCI-H2126; first compound 0.003162 µM) was 1.14 and the relative viability (NCI-H2126; first compound 0.01 µM) was 1.06. The relative viability (NCI-H2126; first compound 0.03162 µM) was 0.962, the relative viability (NCI-H2126; first compound 0.1 µM) was 0.606 and the relative viability (NCI-H2347; first compound 0.001 µM) was 0.691. The relative viability (NCI-H2347; first compound 0.003162 µM) was 0.597, the relative viability (NCI-H2347; first compound 0.01 µM) was 0.748 and the relative viability (NCI-H2347; first compound 0.03162 µM) was 0.567. It also gave a relative viability (NCI-H2347; first compound 0.1 µM) of 0.596, a relative viability (NCI-H3122; first compound 0.001 µM) of 0.965 and a relative viability (NCI-H3122; first compound 0.003162 µM) of 1.24. The relative viability (NCI-H3122; first compound 0.01 µM) was 1.37, the relative viability (NCI-H3122; first compound 0.03162 µM) was 0.967 and the relative viability (NCI-H3122; first compound 0.1 µM) was 0.382. The relative viability (NCI-H322M; first compound 0.001 µM) was 0.597, the relative viability (NCI-H322M; first compound 0.003162 µM) was 0.525 and the relative viability (NCI-H322M; first compound 0.01 µM) was 0.518. The relative viability (NCI-H322M; first compound 0.03162 µM) was 0.41, the relative viability (NCI-H322M; first compound 0.1 µM) was 0.407 and the relative viability (NCI-H441; first compound 0.001 µM) was 1.08. For the same compound, the relative viability (NCI-H441; first compound 0.003162 µM) was 1.21, the relative viability (NCI-H441; first compound 0.01 µM) was 1.19 and the relative viability (NCI-H441; first compound 0.03162 µM) was 0.714. For the same compound, the relative viability (NCI-H441; first compound 0.1 µM) was 0.565, the relative viability (NCI-H650; first compound 0.001 µM) was 1.08 and the relative viability (NCI-H650; first compound 0.003162 µM) was 1.01. For the same compound, the relative viability (NCI-H650; first compound 0.01 µM) was 0.914, the relative viability (NCI-H650; first compound 0.03162 µM) was 0.918 and the relative viability (NCI-H650; first compound 0.1 µM) was 0.721. It also gave a relative viability (NCI-H838; first compound 0.001 µM) of 0.86, a relative viability (NCI-H838; first compound 0.003162 µM) of 1.01 and a relative viability (NCI-H838; first compound 0.03162 µM) of 0.9. The relative viability (NCI-H838; first compound 0.1 µM) was 0.995.
